Article PMC3025057 (Experimental parasitology, 2010)

Molecular target: Trypanosoma brucei hexokinase 1 (TbHK1) (Trypanosoma brucei, UniProt Q38C42)
Assay: G6PDH-coupled hexokinase assay with recombinant enzyme
Format: biochemical

O=c1c(O)c(-c2ccc(O)c(O)c2)oc2cc(O)cc(O)c12 [QCN, 3,3′,4′,5,7-pentahydroxyflavone]
Ki: 2900 ± 900 nM
